# Test results published in patent US9763973B2, “Agent for treating HTLV-I associated myelopathy” (NAGASAKI UNIVERSITY, priority 2011, dated 2017).
# Several values for one entry are separate records, joined by “and”; a condition that tells them apart may be missing. Equal values may be shown once.
# Tests used:
# HTLV-I provirus [1] = details: anti-HTLV-I therapy with HDAC inhibitor; cited from earlier work
# HTLV-I = details: in vitro; non-patent documents 4-6; cited from earlier work
# HAM patients [2] = details: in vivo test; non-patent documents 4 and 5; cited from earlier work
# HTLV-I provirus [3] = assay: amount of peripheral blood HTLV-I provirus (real-time quantitative PCR), clinical test in HAM patients; type: in vivo, human; details: for HTLV-I provirus amount, average: average of 12 cases, average at start 1268; for HTLV-I provirus amount: individual HAM cases, same s.c. regimen
# Method: Therefore, for virological evaluation, the amount of peripheral blood HTLV-I provirus was monitored, immunological markers predicted to vary depending on a decrease in the provirus was simultaneously monitored, and the effect of pentosan polysulfate on HTLV-I was verified. In addition, the clinical effects (lower leg motility function etc.) were evaluated simultaneously with the measurement of the virus amount, and the correlation between a decrease in the virus amount and the clinical effect was confirmed. Furthermore, the amount of HTLV-I provirus was measured before and after administration of pentosan polysulfate, and a virus, amount decreasing effect of pentosan polysulfate was confirmed, whereby the possibility of providing a causal therapy was verified. Subject: 12 cases of HAM patients (9 females, 3 males, age; 49-77 years old, duration of illness; 3-52 years) (Table 1). Test method: Sodium pentosan polysulfate was subcutaneously administered by 25 mg for the first time (0 week), 50 mg 1 week later, 100 mg once a week from the second week to the 7th week to the brachial region. The test medicament was used in 1 ml ampoule of sodium pentosan polysulfate (100 mg/ml) supplied by bene pharmaChem of Germany.
# [4] = tested on: serum soluble IL-2 receptor (sIL-2R); assay: serum soluble IL-2 receptor (sIL-2R), clinical test in HAM patients; type: in vivo, human; details: for sIL-2R: individual HAM cases, same s.c. regimen
# Method: (§1) Subject: 12 cases of HAM patients (9 females, 3 males, age; 49-77 years old, duration of illness; 3-52 years) (Table 1).
# (§2) Test method: Sodium pentosan polysulfate was subcutaneously administered by 25 mg for the first time (0 week), 50 mg 1 week later, 100 mg once a week from the second week to the 7th week to the brachial region. The test medicament was used in 1 ml ampoule of sodium pentosan polysulfate (100 mg/ml) supplied by bene pharmaChem of Germany.
# (§3) Test items: the subjective symptoms and neurological observations (including spasticity, gait time, time for descending stairs, motility dysfunction level and the like) were checked at the time of screening, week 0 (initial administration), week 8 from the start of treatment (week 1 after completion of treatment) and week 12 from the start of treatment (week 5 after completion of treatment). Similarly, general clinical tests, and immunological (serum soluble IL-2 receptor (sIL-2R), peripheral blood lymphoblastogenesis test) and virological tests (amount of peripheral blood HTLV-I provirus (real-time quantitative PCR method), anti-HTLV-I antibody titer) were performed.
# HAM patients [5] = assay: 30 m gait time, clinical test in HAM patients; type: in vivo, human; details: for 30 m gait: individual HAM cases, same s.c. regimen; for 30 m gait, mean value: mean of tested cases
# From the text: (§4) The main symptoms of HAM are motility/gait disorders and the like. As items for the clinical evaluation of these symptoms, lower leg motility function (walking time, time for descending stairs, spasticity, motility dysfunction level etc.) tests and the like can be mentioned. By evaluating these items before and after administration of pentosan polysulfate, the treatment effect of subcutaneous injection of pentosan polysulfate on HAM was verified.
# as §1, §2, §3
# HAM patients [6] = assay: spasticity on modified Ashworth scale (MAS), clinical test in HAM patients; type: in vivo, human; details: individual HAM cases; same s.c. regimen; blank = spasticity absent from the start
# From the text: Spasticity is one type of hypertonia, and caused by an abnormal increase in the muscle stretch reflex. Clinically, spasticity is a speed-dependent resistance to stretch, which is defined to be the state wherein the muscle is excessively contracted due to the lack of suppression from the central nervous system, which finally leads to an increase in the reflection. As a measurement method of spasticity, the Ashworth scale is well known, and its modified version by Bohannon is often used clinically (modified Ashworth scale; Bohannon R W, Smith M B: Interrater reliability of a Modified Ashworth Scale of Muscle Spasticity. Phys Ther 67: 206-207, 1987). […]
# as §3
# HAM patients [7] = assay: motility dysfunction level (Osame scale), clinical test in HAM patients; type: in vivo, human; details: 12 HAM cases; 0-13 scale; changes not found in other cases
# From the text: As regards the gait disorder due to HAM-related spastic paraplegia, the gait disorder in the present specification includes not only disorder in walking but also disorder in running and ascending and descending stairs, as well as wheelchair state and bedridden state due to gait function disorders. […]
# as §3, with “performed. […]” for “performed.”
# anti-HTLV-I antibody = anti-HTLV-I antibody titer (PA method), clinical test in HAM patients; type: in vivo, human; details: start vs week 8, week 12 (Table 4)
# Method: as §1, §2, §3
# HAM patients [8] = assay: 10 m gait time, clinical test in HAM patients; type: in vivo, human; details: for 10 m gait: individual HAM cases, same s.c. regimen; for 10 m gait, mean value: mean of tested cases
# From the text: as §4, §1, §2, §3
# HAM patients [9] = assay: time for descending stairs (10 stairs), clinical test in HAM patients; type: in vivo, human; details: for descending stairs (10 stairs): individual HAM cases, same s.c. regimen; for descending stairs, mean value: mean of tested cases
# From the text: as §4, §1, §2, §3
# [10] = tested on: peripheral blood lymphoblastogenesis; assay: lymphoblastogenesis test (stimulation index to PHA), clinical test in HAM patients; type: in vivo, human
# Method: as §1, §2, §3
# HAM = details: recent case-control study; non-patent document 3; cited from earlier work
molecule,measurement,setting,value
CCCC(CCC)C(=O)O [valproic acid],effect on amount of peripheral blood HTLV-I provirus,HTLV-I provirus [1],transiently and markedly increases the amount of peripheral blood HTLV-I provirus
heparin,HTLV-I infection inhibitory action,HTLV-I,shows an HTLV-I infection inhibitory action
same,clinical effectiveness for HAM patients,HAM patients [2],clinically effective for HAM patients
sodium pentosan polysulfate,HTLV-I infection inhibitory action,HTLV-I,very strong HTLV-I infection inhibitory action at a low dose as compared to heparin
same,"HTLV-I provirus amount, significance of change","HTLV-I provirus [3]; all 12 cases, week 8 from start of treatment",no significant difference
same,average decrease in amount of HTLV-I provirus,"HTLV-I provirus [3]; all 12 cases, week 8 from start of treatment vs start",about 9%
same,"HTLV-I provirus amount, average",HTLV-I provirus [3]; week 8,1153 copy number/10^4 PBMC
same,"HTLV-I provirus amount, average",HTLV-I provirus [3]; week 12,1241 copy number/10^4 PBMC
same,HTLV-I provirus amount,HTLV-I provirus [3]; week 8,1140 copy number/10^4 PBMC and 648 copy number/10^4 PBMC and 699 copy number/10^4 PBMC and 503 copy number/10^4 PBMC and 999 copy number/10^4 PBMC and 2149 copy number/10^4 PBMC and 479 copy number/10^4 PBMC and 830 copy number/10^4 PBMC and 2030 copy number/10^4 PBMC and 1621 copy number/10^4 PBMC and 837 copy number/10^4 PBMC and 1900 copy number/10^4 PBMC
same,HTLV-I provirus amount,HTLV-I provirus [3]; week 12,1750 copy number/10^4 PBMC and 668 copy number/10^4 PBMC and 697 copy number/10^4 PBMC and 471 copy number/10^4 PBMC and 1032 copy number/10^4 PBMC and 2052 copy number/10^4 PBMC and 460 copy number/10^4 PBMC and 767 copy number/10^4 PBMC and 2380 copy number/10^4 PBMC and 1971 copy number/10^4 PBMC and 853 copy number/10^4 PBMC and 1794 copy number/10^4 PBMC
same,"HTLV-I provirus amount, course after completion of administration",HTLV-I provirus [3]; week 5 after completion of administration (week 12),a tendency of returning to the amount at the start of the treatment
same,sIL-2R,[4]; week 2,511 pg/mL and 1462 pg/mL and 1086 pg/mL and 933 pg/mL and 1475 pg/mL and 1741 pg/mL and 1524 pg/mL and 1405 pg/mL and 2264 pg/mL and 1256 pg/mL and 1688 pg/mL and 1474 pg/mL
same,sIL-2R,[4]; week 8,577 pg/mL and 1482 pg/mL and 904 pg/mL and 1152 pg/mL and 1475 pg/mL and 1551 pg/mL and 1460 pg/mL and 1954 pg/mL and 2420 pg/mL and 1452 pg/mL and 1774 pg/mL and 1964 pg/mL
same,sIL-2R,[4]; week 12,627 pg/mL and 1357 pg/mL and 914 pg/mL and 1073 pg/mL and 1557 pg/mL and 1706 pg/mL and 1716 pg/mL and 1864 pg/mL and 2516 pg/mL and 1480 pg/mL and 1882 pg/mL and 1774 pg/mL
same,"soluble IL-2 receptor (sIL-2R) test, significance of change","[4]; start vs weeks 2, 8, 12 (Table 3)",significant difference was not observed
same,30 m gait,HAM patients [5]; week 8,22.1 s and 16.8 s and 52.3 s and 20.8 s and 26.7 s and 36.5 s and 20.5 s and 96.5 s and 41.6 s
same,30 m gait,HAM patients [5]; week 12,22 s and 16.6 s and 59.6 s and 19.8 s and 28.6 s and 38.1 s and 20.5 s and 97.5 s and 45.4 s
same,"30 m gait, mean value","HAM patients [5]; week 8, mean at start 41.7 (Table 7 in seconds)",37.1
same,"30 m gait, mean value","HAM patients [5]; week 12, mean at start 41.7",38.7
same,improvement of spasticity (evaluated on modified Ashworth scale (MAS)),HAM patients [6],(+) (evaluated (+) when either lower leg improved by 1 grade or more)
same,improvement in motility dysfunction level,HAM patients [7],only in one case (from 6 to 5 in week 8)
same,"anti-HTLV-I antibody test, significance of change",anti-HTLV-I antibody,significant difference was not observed
same,10 m gait,HAM patients [8]; week 8,7.5 s and 5.5 s and 15.8 s and 6.4 s and 8.9 s and 11.5 s and 6.5 s and 32.5 s and 13.9 s and 18.5 s
same,10 m gait,HAM patients [8]; week 12,7.1 s and 5.3 s and 16.9 s and 6.2 s and 9.7 s and 12.5 s and 6.5 s and 31.9 s and 15.8 s and 19.9 s
same,"10 m gait, mean value","HAM patients [8]; week 8, mean at start 14.7 (Table 6 in seconds)",12.7
same,"10 m gait, mean value","HAM patients [8]; week 12, mean at start 14.7",13.2
same,descending stairs (10 stairs),HAM patients [9]; week 8,4.8 seconds (2×) and 4 seconds and 17.5 seconds and 9.1 seconds (2×) and 7.4 seconds and 4.1 seconds
same,descending stairs (10 stairs),HAM patients [9]; week 12,4.9 seconds and 4 seconds (3×) and 21.2 seconds and 12.4 seconds and 8.7 seconds and 8.9 seconds
same,"descending stairs, mean value","HAM patients [9]; week 8, mean at start 9.3 (Table 8 in seconds)",7.6
same,"descending stairs, mean value","HAM patients [9]; week 12, mean at start 9.3",8.5
same,lymphoblastogenesis test (stimulation index to PHA),"[10]; individual HAM cases (table row = case no.), s.c. 25 mg wk 0, 50 mg wk 1, 100 mg weekly wk 2-7, week 8 from start",9.2 and 12.4 and 4.7 and 7.9 and 16.3 and 14 and 13.3 and 9.4 and 3.7 and 9.7 and 11.9 and 8.2
same,lymphoblastogenesis test (stimulation index to PHA),"[10]; individual HAM cases, same s.c. regimen, week 12 from start (week 5 after completion)",6.1 and 7.1 and 6.7 and 15 and 18.1 and 24.7 and 17.2 and 9.3 and 4.9 and 9.2 and 12.2 and 6.9
same,"lymphoblastogenesis test, significance of change","[10]; start vs week 8, week 12 (Table 2)",significant difference was not observed
zidovudine+lamivudine,effectiveness as anti-HTLV-I therapy for HAM,HAM,effectiveness thereof was not verified
